Positions of bridges follow the written chain, without caps; N, C: chain ends. Non-standard residues stand in square brackets, D forms with d. No end group written: not given here. R8 = C=CCCCCCC[C@@](C)(N)C(=O)O; Cit = NC(=O)NCCC[C@H](N)C(=O)O; S5 = C=CCCC[C@](C)(N)C(=O)O
Molecular target: T1, ABCA1 (Mus musculus, UniProt P41233)
T1 construct: treated (18 h) with a cAMP analog to induce ABCA1 protein expression; endogenous in cells; host or cells: J774 macrophages
Experiment: ABCA1-dependent cholesterol efflux from [3H]cholesterol-labeled J774 macrophages with and without cAMP
Type: cell-based
Details: J774, cAMP vs no cAMP; 10 μg/ml lipid-free

T1 sequence (P41233 whole entry): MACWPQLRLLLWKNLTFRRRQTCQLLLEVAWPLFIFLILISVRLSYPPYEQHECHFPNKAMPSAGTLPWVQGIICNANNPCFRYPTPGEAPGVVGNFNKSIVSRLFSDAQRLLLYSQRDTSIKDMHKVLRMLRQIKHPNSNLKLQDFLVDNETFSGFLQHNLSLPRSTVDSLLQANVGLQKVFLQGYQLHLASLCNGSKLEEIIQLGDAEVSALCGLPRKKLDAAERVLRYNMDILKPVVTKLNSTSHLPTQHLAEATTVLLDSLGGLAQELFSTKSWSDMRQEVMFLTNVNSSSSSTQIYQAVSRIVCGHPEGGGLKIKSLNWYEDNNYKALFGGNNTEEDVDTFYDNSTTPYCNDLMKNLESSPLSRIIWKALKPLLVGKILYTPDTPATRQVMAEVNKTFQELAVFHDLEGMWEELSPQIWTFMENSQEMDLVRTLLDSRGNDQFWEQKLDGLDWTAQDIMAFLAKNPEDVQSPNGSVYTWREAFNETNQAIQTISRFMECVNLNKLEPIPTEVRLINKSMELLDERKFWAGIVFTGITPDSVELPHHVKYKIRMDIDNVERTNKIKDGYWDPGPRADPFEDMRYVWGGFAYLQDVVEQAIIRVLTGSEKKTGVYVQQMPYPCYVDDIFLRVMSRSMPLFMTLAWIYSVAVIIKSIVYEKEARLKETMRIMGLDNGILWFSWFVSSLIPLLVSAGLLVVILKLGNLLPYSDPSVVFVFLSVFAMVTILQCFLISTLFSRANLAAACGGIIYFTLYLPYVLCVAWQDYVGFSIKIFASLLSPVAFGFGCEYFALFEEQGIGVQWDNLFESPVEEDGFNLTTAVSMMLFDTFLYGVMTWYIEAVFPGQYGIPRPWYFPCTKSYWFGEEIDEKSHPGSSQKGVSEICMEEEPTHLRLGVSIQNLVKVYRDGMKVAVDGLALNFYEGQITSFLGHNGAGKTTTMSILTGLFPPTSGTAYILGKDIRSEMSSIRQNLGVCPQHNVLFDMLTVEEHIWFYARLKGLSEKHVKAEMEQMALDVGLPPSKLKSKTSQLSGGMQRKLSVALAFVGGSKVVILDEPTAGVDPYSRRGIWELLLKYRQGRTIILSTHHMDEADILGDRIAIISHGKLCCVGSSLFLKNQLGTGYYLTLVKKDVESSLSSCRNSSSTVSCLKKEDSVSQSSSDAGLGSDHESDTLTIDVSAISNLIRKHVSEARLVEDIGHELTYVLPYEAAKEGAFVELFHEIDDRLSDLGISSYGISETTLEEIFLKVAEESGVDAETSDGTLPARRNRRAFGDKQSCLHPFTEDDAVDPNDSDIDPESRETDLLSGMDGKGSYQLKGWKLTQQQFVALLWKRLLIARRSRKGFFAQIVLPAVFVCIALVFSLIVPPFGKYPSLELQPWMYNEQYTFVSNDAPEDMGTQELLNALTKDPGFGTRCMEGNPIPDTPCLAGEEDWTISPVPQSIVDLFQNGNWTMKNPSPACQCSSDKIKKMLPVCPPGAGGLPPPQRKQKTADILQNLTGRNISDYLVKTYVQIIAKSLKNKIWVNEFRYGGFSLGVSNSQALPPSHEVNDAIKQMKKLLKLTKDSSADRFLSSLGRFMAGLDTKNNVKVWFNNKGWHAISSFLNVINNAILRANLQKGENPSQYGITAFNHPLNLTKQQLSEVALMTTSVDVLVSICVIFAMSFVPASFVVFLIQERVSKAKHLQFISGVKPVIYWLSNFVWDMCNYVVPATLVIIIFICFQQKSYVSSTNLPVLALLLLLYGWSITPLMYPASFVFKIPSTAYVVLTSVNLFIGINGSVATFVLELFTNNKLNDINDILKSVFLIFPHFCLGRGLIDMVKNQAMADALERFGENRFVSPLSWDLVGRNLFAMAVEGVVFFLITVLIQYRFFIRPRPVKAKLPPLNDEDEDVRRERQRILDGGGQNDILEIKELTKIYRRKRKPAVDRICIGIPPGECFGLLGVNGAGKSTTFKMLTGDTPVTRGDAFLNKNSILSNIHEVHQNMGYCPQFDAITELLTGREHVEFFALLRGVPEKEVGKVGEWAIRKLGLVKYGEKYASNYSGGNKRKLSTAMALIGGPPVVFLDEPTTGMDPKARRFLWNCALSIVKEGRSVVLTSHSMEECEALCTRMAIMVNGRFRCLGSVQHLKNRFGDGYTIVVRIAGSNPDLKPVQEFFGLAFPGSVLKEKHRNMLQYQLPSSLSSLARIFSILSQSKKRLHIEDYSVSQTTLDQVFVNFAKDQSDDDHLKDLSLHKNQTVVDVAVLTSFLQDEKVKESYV

| Compound | ABCA1-dependent cholesterol efflux activity |
| --- | --- |
| CS6256A: ATI-5261 with glutamine at positions 3 and 23 and a chemical staple (EVQSKLEEWFAAF[S5]EFAEEF[R8]AQLKS; staple 14-21) | highly dependent on ABCA1 comparable to ATI-5261 |
| CS6257: ATI-5261 with uncharged alanine at positions 3 and 23 and a chemical staple (EVASKLEEWFAAF[S5]EFAEEF[R8]AALKS; staple 14-21) | highly dependent on ABCA1 comparable to ATI-5261 |
| CS6259: leucine form of ATI-5261 with glutamine at positions 3 and 23 and a chemical staple (EVQSKLEEWLAAL[R8]ELAEEL[S5]AQLKS; staple 14-21) | highly dependent on ABCA1 comparable to ATI-5261 |
| T7983-11: Y26 analog of T6991-2 (S26→Y for 125I labeling) (EV[Cit]SKLEEWIAAI[Cit]EIAEEILARLKY) [Peptide T7983-11] | functional, mediating high-levels of cholesterol efflux in an ABCA1-dependent manner |

Test system: C57Bl/6 mice
Experiment: not given
Type: in vivo
Details: 300 mg/kg IP, male chow-fed C57Bl/6 mice, 4 and 6 h
Method: The high-dose cytotoxic response of ATI-5261 observed in rat, rabbit and cynomolgus monkey is additionally recapitulated in mice (FIG. 4). Male chow-fed C57bl/6 mice were injected intraperitonelly (IP) with 30 or 300 mg/kg of lipid-fee ATI-5261. Blood was collected via the retro-orbital plexus 4 h after peptide injection and plasma subsequently obtained for measurement of CPK (Panel A) and ALT and AST activities (Panel B, ALT left bars, AST, right bars). Values are means±SD, n=4 mice per group.
This example illustrates that aromatic phenylalanine residues associated with the non-polar surface of ATI-5261 contributed to the majority of the peptide toxicity (FIG. 5). […] Blood was collected via retro-orbital plexus 4 h after injection for isolation of plasma. Levels of plasma CPK (Panel A), ALT (panel B) and AST (Panel C) were determined as described in FIG. 1. Values are means±SD, n=4 mice per group.
The concentrations of plasma lipids in C57Bl/6 mice following administration of the aliphatic analogs of ATI-5261 was also determined. […] All values (mg/dl) are means±SD, n=4, determined at 4 and 6 h post treatment with peptide.

| Compound | TG elevating effect (plasma TG, cholesterol) |
| --- | --- |
| EARSKAEEWLAALRELAEELLARAKS [Peptide T5505-12] | produced low toxicity and greatly ablated TG elevating effects |
| EVRSKLEEWLAALRELAEELAARLKS [Peptide T4883-7] | further reduced cytotoxic response and TG elevating effects |
| EVRSKLEEWLAALRELAEELLARAKS [Peptide T4883-6] | further reduced cytotoxic response and TG elevating effects |
| EVRSKLEEWLAALRELAEELLARLKS [Peptide T5055-13] | greatly attenuated |
| T5505-9: ATI-5261 analog with L24A; W9L substitutions (EVRSKLEELLAALRELAEELLARAKS; synthetic amphipathic alpha-helix cholesterol efflux peptide T5505-9, LeuATI-5261 analog) | markedly reduced the increase in plasma CPK and AST as well as TG elevating activity |

Same assay, conditions: 300 mg/kg IP, male chow-fed C57Bl/6 mice, 4 h

| Compound | cytotoxic/toxic response (plasma CPK, ALT, AST) | muscle toxicity (plasma CPK activity) | plasma ALT / AST |
| --- | --- | --- | --- |
| EARSKAEEWLAALLELAEELLARAKS [Peptide T5211-2] | displayed little or no toxic responses and low TG in plasma | – | – |
| EARSKAEEWLAALRELAEELLARAKS [Peptide T5505-12] | produced low toxicity and greatly ablated TG elevating effects | – | – |
| EVNSKLEEWLAALNELAEELLARLKS [Peptide T5766-4] | – | greatly reduced the increase in CPK and TG elevating effects | – |
| EVQSKLEEWLAALQELAEELLARLKS [Peptide T5766-3] | – | greatly reduced the increase in CPK and TG elevating effects | – |
| EVRSKLEEWFAAFREFAEEFLARL [Peptide T5766-5] | appeared to reduce the toxic responses | greatly reduced muscle toxicity | – |
| EVRSKLEEWFAAFREFAEEFLARLNS [Peptide T5594-4] | – | greatly reduced muscle toxicity | – |
| EVRSKLEEWIAAIREIAEEILARLKS [Peptide T6991-1] | – | displayed little or no cytotoxic properties related to CPK elevations | – |
| EVRSKLEEWLAALRELAEELAARLKS [Peptide T4883-7] | further reduced cytotoxic response and TG elevating effects | sufficient to eliminate the residual muscle toxicity | – |
| EVRSKLEEWLAALRELAEELLARAKS [Peptide T4883-6] | further reduced cytotoxic response and TG elevating effects | sufficient to eliminate the residual muscle toxicity | – |
| EVRSKLEEWLAALRELAEELLARLKS [Peptide T5055-13] | – | residual toxicity | – |
| EVRSKLQEWFAAFREFAQEFLARLKS [Peptide T5554-1] | produced a large increase in the toxic response | – | – |
| T5505-9: ATI-5261 analog with L24A; W9L substitutions (EVRSKLEELLAALRELAEELLARAKS; synthetic amphipathic alpha-helix cholesterol efflux peptide T5505-9, LeuATI-5261 analog) | – | markedly reduced the increase in plasma CPK and AST as well as TG elevating activity | markedly reduced the increase in plasma CPK and AST as well as TG elevating activity |
| T5554-4: E→Q analog bearing citrulline substitutions (EV[Cit]SKLQEWFAAFREFAEEFLARLKS) [Peptide T5554-4] | retained strong toxic (CPK, ALT, and AST) and TG elevating responses | – | – |
| T5554-5: E→Q analog bearing citrulline substitutions, net charge −1 (EV[Cit]SKLQEWFAAF[Cit]EFAQEFLARLKS) [Peptide T5554-5] | retained strong toxic (CPK, ALT, and AST) and TG elevating responses | – | – |
| T5594-5: ATI-5261 analog with all lysine residues (R>K substitutions) (EVKSKLEEWFAAFKEFAEEFLAKLKS; synthetic amphipathic alpha-helix cholesterol efflux peptide T5594-5, ATI-5261 analog) | displayed cytotoxic and TG elevating activity | – | – |

Test system: not given
Experiment: not given
Details: scaled values = (raw log(P) + 2.061)/4.484; cited from earlier work

| Compound | Hydrophobicity |
| --- | --- |
| C[C@H](N)C(=O)O [Alanine] | 0.616 |
| N=C(N)NCCC[C@H](N)C(=O)O [Arginine] | 0.000 |
| NC(=O)C[C@H](N)C(=O)O [Asparagine] | 0.236 |
| N[C@@H](CCC(=O)O)C(=O)O [Glutamate] | 0.043 |
| NCC(=O)O [Glycine] | 0.501 |
| N[C@@H](Cc1c[nH]cn1)C(=O)O [Histidine] | 0.165 |
| CC[C@H](C)[C@H](N)C(=O)O [Isoleucine] | 0.943 |
| NCCCC[C@H](N)C(=O)O [Lysine] | 0.283 |
| CSCC[C@H](N)C(=O)O [Methionine] | 0.738 |
| N[C@@H](Cc1ccccc1)C(=O)O [Phenylalanine] | 1.00 |
| O=C(O)[C@@H]1CCCN1 [Proline] | 0.711 |
| C[C@@H](O)[C@H](N)C(=O)O [Threonine] | 0.450 |
| N[C@@H](Cc1c[nH]c2ccccc12)C(=O)O [Tryptophan] | 0.878 |
| N[C@@H](Cc1ccc(O)cc1)C(=O)O [Tyrosine] | 0.880 |
| CC(C)[C@H](N)C(=O)O [Valine] | 0.825 |

Molecular target: T1, ABCA1
Experiment: ABCA1-dependent cholesterol efflux from [3H]cholesterol-labeled J774 macrophages with and without cAMP
Type: cell-based
Details: cAMP treated J774, dose response, 4 h
Excerpt: Suitable cholesterol efflux assays are described in, e.g., Bielicki, J. K and Oda, M. N., Biochemistry, 41:2089-2096 (2002); Jia et al., Biochem. Biophys. Res. Common., 297:206-213 (2002). In some embodiments, a polypeptide known to mediate cholesterol efflux (e.g., helix 9/10 of Apo A-I) is used to screen for additional mediators of cholesterol efflux in a cell based assay. For example, cell lines in which cholesterol efflux can be enhanced using a cAMP analog that up-regulates ABCA1 protein expression (e.g., J774 macrophages) can conveniently be used to assess the ability of a polypeptide of the present invention to mediate cholesterol efflux. The cells are incubated with labeled cholesterol (e.g., [^3H]cholesterol) under conditions appropriate for cholesterol uptake by the cells. Thus, cAMP or cAMP analogs (e.g., CPT-cAMP) are incubated with the cells for a suitable time before the initiation of cellular cholesterol efflux, i.e., prior to contacting the cells with a test polypeptide. Measurement of labeled cholesterol appearing in the medium is used to determine the cholesterol efflux mediating activity of the test polypeptide.
Aliphatic analogs of ATI-5261 lacking phenylalanine residues retained potent ABCA1 selective cholesterol efflux activity (FIG. 7). J774 macrophages were labeled (48 h) with [^3H]cholesterol and treated (18 h) with a cAMP analog to induce ABCA1 protein expression; cells incubated in the absence of cAMP (left bars) served as controls. […] Peptides were used at a concentration of 30 μg/ml, which was maximal for promoting cholesterol efflux activity. Panel B—Dependence of cholesterol efflux on the concentration of peptides. […] Results are expressed as the difference in cholesterol efflux (%/4 h) observed using cAMP treated vs. non-treated J774 cells. Values are means±SD, n=3.

| Compound | Km for cholesterol efflux | peptide concentration at saturation of cholesterol efflux |
| --- | --- | --- |
| T5505-9: ATI-5261 analog with L24A; W9L substitutions (EVRSKLEELLAALRELAEELLARAKS; synthetic amphipathic alpha-helix cholesterol efflux peptide T5505-9, LeuATI-5261 analog) | 0.58 µg/mL | ~3 µg/mL |
| T6275-5: citrulline form of LeuATI-5261 with single citrulline14→L substitution (EV[Cit]SKLEEWLAALLELAEELLARLKS) [Peptide T6275-5] | – | 3 µg/mL |
| T7983-11: Y26 analog of T6991-2 (S26→Y for 125I labeling) (EV[Cit]SKLEEWIAAI[Cit]EIAEEILARLKY) [Peptide T7983-11] | – | 3 µg/mL |
